Earlier results on five molecules are cited in publication PMC8352932, “Targeted activity of the small molecule kinase inhibitor Pz-1 towards RET and TRK kinases” (Scientific Reports, 2021).

Several values for one entry are separate records, joined by “and”; a condition that tells them apart may be missing. Identical values can stand only once.

Settings in all cases: read-out: cell proliferation IC50
The test system of one data set is KIF5B-RET Ba/F3 cells.
A further data set concerns MPRIP-TRKA Ba/F3 cells. The arrangement: method as in PMID 24162815.
The subject of a further data set is TEL-TRKA Ba/F3 cells.

Consider `COc1ccc(CN2C3CC2CN(c2ccc(-c4cc(OCC(C)(C)O)cn5ncc(C#N)c45)cn2)C3)cn1` [selpercatinib], for which the IC50 with KIF5B-RET Ba/F3 cells was 8 nM. Regarding `O=C(Nc1cnn2ccc(N3CCC[C@@H]3c3cc(F)ccc3F)nc12)N1CC[C@H](O)C1` [larotrectinib], the IC50 with MPRIP-TRKA Ba/F3 cells is 8 nM. With `CN1CCN(c2ccc(C(=O)Nc3n[nH]c4ccc(Cc5cc(F)cc(F)c5)cc34)c(NC3CCOCC3)c2)CC1` [entrectinib], the IC50 with TEL-TRKA Ba/F3 cells was 2.8 nM. Regarding `CO[C@]1(C(=O)N[C@@H](C)c2ccc(-n3cc(F)cn3)nc2)CC[C@H](c2nc(C)cc(Nc3cc(C)[nH]n3)n2)CC1` [pralsetinib], the IC50 in the data set with KIF5B-RET Ba/F3 cells was 9.7 nM and 16.5 nM. Take `COc1cc2nccc(Oc3ccc(NC(=O)C4(C(=O)Nc5ccc(F)cc5)CC4)cc3)c2cc1OC` [cabozantinib]: in the data set on KIF5B-RET Ba/F3 cells, the IC50 is 341 nM.
